{"source": "patent US20040185499A1", "about": "“Method of epitope scanning using fluorescence polarization” (priority 2003, published 2004)", "note": "Where no end group is shown, it is not given here. The star is where a group is joined. 6FAM = O=C1OC2(c3ccc(O)cc3Oc3cc(O)ccc32)c2cc(C(=O)*)ccc21"}
{"tested_on": "antibodies to MPB70 in M. bovis positive bovine serum", "assay_type": "binding", "settings": "pH 7.5"}
{"sequence": "AASNNPELTTLTAAL (6FAM-AASNNPELTTLTAAL; listed as Mycobacterium bovis) [Peptide 19]", "increase in fluorescence polarization with M. bovis positive bovine serum sample": "substantial increase in fluorescence polarization"}
{"sequence": "ASNNPELTTLTAALS (6FAM-ASNNPELTTLTAALS; listed as Mycobacterium bovis) [Peptide 20]", "increase in fluorescence polarization with M. bovis positive bovine serum sample": "substantial increase in fluorescence polarization"}
{"sequence": "AVAASNNPELTTLTA (6FAM-AVAASNNPELTTLTA; listed as Mycobacterium bovis) [Peptide 17]", "increase in fluorescence polarization with M. bovis positive bovine serum sample": "substantial increase in fluorescence polarization"}
{"sequence": "NNPELTTLTAALSGQ (6FAM-NNPELTTLTAALSGQ; listed as Mycobacterium bovis) [Peptide 22]", "increase in fluorescence polarization with M. bovis positive bovine serum sample": "substantial increase in fluorescence polarization"}
{"sequence": "SNNPELTTLTAALSG (6FAM-SNNPELTTLTAALSG; listed as Mycobacterium bovis) [Peptide 21]", "increase in fluorescence polarization with M. bovis positive bovine serum sample": "substantial increase in fluorescence polarization"}
{"sequence": "VAASNNPELTTLTAA (6FAM-VAASNNPELTTLTAA; listed as Mycobacterium bovis) [Peptide 18]", "increase in fluorescence polarization with M. bovis positive bovine serum sample": "substantial increase in fluorescence polarization"}
{"sequence": "VAVAASNNPELTTLT (6FAM-VAVAASNNPELTTLT; listed as Mycobacterium bovis) [Peptide 16]", "increase in fluorescence polarization with M. bovis positive bovine serum sample": "substantial increase in fluorescence polarization"}
